Assay results: US11213497B2, “Antibiofilm formulations” (ARIZONA BOARD OF REGENTS ON BEHALF OF NORTHERN ARIZONA …, priority 2017, dated 2022)

Experiments:
MSSA = experiment: MBEC of geranic acid in solution (Hepes buffer); assay type: cell-based, Staphylococcus aureus; conditions: 50 mM Hepes buffer
Source text: Neutral species in DES may be uniquely important to potentiate otherwise bioactive IL. […] At this pH, most of the acid is expected to be found in the protonated state (pKa is ˜5-5.5 according to the literature). […] Many different DES can be envisioned with this same platform of 1:1 anion:cation as an EPS disruptor/delivery agent with a neutral acid (or even a completely neutral species such as an isoprenoid hydrocarbon) as a molecule designed to saturate both leaflets of a cellular membrane.

[1] = according to the literature; cited from earlier work
[2] = test system: mammalian skin cell lines

Description for MSSA biofilms: Biofilms of Methicillin-sensitive Staphylococcus aureus (MSSA) were established on the pegs of a biofilm inoculator (Innovotech) according to the manufacturer's instructions. Briefly, a bacterial colony of MSSA was inoculated from an agar streak plate into cation-adjusted Mueller-Hinton broth (5 mL) and grown to confluence overnight in a shaker incubator (37° C., 200 rpm). The confluent culture was then diluted into fresh media (1:100, v:v), and grown to an optical density (OD) of 0.4 (approximately three hours). At this time, the cultures were again diluted into fresh media (1:50, v:v) and 200 μL of the resultant dilution were placed into each well of an Innovotech 96 well biofilm inoculator plate. The inoculator was added to the wells of the culture plate and it was placed in a shaker incubator overnight (37° C., 150 rpm). The spent media was decanted each morning and refreshed with equal volumes of new media, and the inoculator was again placed in a shaker incubator overnight (37° C., 150 rpm). […]
A 10% (v:v) stock solution of each DES in CAMHB was serially diluted into fresh CAMHB in the wells of a 96 well plate. […] MSSA cells were allowed to grow overnight in the shaker incubator and viability was assessed via measurement of optical density at 600 nm using a plate reader (Synergy HT). […]

In the case of `CC(C)=CCC/C(C)=C/C(=O)O` [geranic acid], the MBEC (MSSA; pH=6.4, 0.1% Tween 20) is listed as 2.5 % in water, the MBEC (MSSA; pH=8.4, 0.1% Tween 20) is listed as greater than 10% and the pKa [1] is listed as 5-5.5.

For “Choline Geranate Ionic Liquid [2; CAGE (1:1)]”, the “MBEC (% by volume)” value (MSSA biofilms; 2-hour challenge, 72 hr MSSA biofilms, dilutions in CAMHB 0.313-10% (v:v)) was 5-10 % by volume and the “MBEC against MSSA” value (MSSA biofilms; in water) was 5-10%.

With choline geranate [CAGE] the “Toxicity to mammalian skin cell lines” value [2] was “generally non-toxic to mammalian skin cell lines”.
